{"source": "patent US20210276960A1", "about": "“INHIBITORS OF TISSUE TRANSGLUTAMINASE 2 (TG2) AND USES THEREOF” (Northwestern University, priority 2020, published 2021)", "key": {"[1]": {"target": "T1, His-tagged TG2 / biotinylated FN42 interaction (Homo sapiens, UniProt P21980)", "T1 construct": "made in house", "T1 sequence (P21980 1-687)": "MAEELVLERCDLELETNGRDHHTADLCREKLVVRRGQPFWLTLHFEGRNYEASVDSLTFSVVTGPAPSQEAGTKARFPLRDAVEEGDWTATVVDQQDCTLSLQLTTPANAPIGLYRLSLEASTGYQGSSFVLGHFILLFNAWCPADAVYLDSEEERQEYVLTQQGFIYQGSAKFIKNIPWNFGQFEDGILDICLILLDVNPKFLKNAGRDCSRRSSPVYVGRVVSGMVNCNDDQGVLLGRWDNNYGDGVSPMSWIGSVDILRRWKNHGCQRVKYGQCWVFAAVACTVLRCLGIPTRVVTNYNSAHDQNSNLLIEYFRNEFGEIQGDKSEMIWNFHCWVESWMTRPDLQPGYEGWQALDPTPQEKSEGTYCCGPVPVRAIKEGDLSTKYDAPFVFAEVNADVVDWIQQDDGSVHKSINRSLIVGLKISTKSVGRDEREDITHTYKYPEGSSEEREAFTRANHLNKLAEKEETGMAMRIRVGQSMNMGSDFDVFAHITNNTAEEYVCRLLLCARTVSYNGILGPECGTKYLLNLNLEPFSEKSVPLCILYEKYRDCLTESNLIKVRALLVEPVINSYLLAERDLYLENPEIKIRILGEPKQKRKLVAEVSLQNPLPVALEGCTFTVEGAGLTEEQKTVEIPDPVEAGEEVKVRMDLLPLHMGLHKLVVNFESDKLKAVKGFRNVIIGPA", "assay": "ELISA of the TG2-FN interaction", "assay_type": "binding", "conditions": "10 μM", "method": "Confirmation using ELISA: An independent ELISA validated inhibition of TG2/FN complex formation by SMIs^11. The ELISA assay measured the binding between His6-TG2 captured to the wells by anti-His antibodies and biotinylated FN42 detectable with streptavidin-HRP (FIG. 12A). […] Selected compounds (at concentrations between 5 and 10 μM) inhibited the ELISA signal by 29.7% to 69.5%^11.\nELISA measured the interaction between recombinant His tagged TG2 (rTG2-His) and the biotinylated 42 kD fragment of FN (FN42) which were expressed and purified, as previously described (Yakubov et al., 2014). Briefly, a mixture of 10 nMrTG2-His and selected SMIs or DMSO was added to 96 well plates pre-coated with monoclonal anti-His antibody (Roche, Indianapolis, Ind.; 1:6000). The mixture was incubated for 1 h at RT with 5 nM biotinylated FN42. After washing, wells were incubated with streptavidin-HRP (Cell Signaling, #3999; 1:2000). The reaction was developed with 3,3′,5,5′tetramethylbenzidine (TMB) substrate (BD Biosciences, #555214) and the optical density at […] was measured by using a BioTek microplate reader (Winooski, Vt., USA). Data shown are means±SEM of two independent experiments (n=6)."}, "[2]": {"test_system": "SKOV3 cells adhesion to FN", "assay": "Solid phase adhesion assay to FN, SKOV3", "assay_type": "cell-based", "conditions": "FN 5 μg/mL, FIG. 2E", "method": "Cells labeled with calcein AM (Life Technologies, #L3224) were seeded at a density of 4×10^4 cells in 96-well plates pre-coated with FN (5 μg/mL, Sigma, #F1141), and blocked using 1% BSA (Sigma, #A9647) in PBS in the presence of selected compounds diluted at the specified concentrations, in serum free media. After 45 minutes, unattached cells were washed using PBS containing 1 mM MgCl2(Sigma, #M8266) and adherent cells were quantified in a SpectraMaxGeminiXS fluorescence plate reader (Molecular Devices, Palo Alto, Calif.) at 530 nm wavelength. Experiments were performed inquadruplicate and repeated at least twice."}, "[3]": {"test_system": "OVCAR433 cells adhesion onto LP9 monolayers", "assay": "Cell adhesion to LP9 mesothelial monolayers, OVCAR433", "assay_type": "cell-based", "conditions": "at concentrations >10 μM", "method": "(§1) LP9 mesothelial cells added to clear-bottom 96-well plate at 12,000 cells/well were grown to confluency over 48 hours (h). OC cells were labeled with calcein AM and seeded at a density of 4×10^4 cells to monolayers of mesothelial cells and incubated for 1 h. Non-adherent cells were removed by washing with PBS."}, "SKOV3 cells": {"test_system": "SKOV3 cells", "assay": "Wound-healing assay, SKOV3", "assay_type": "cell-based", "conditions": "8 μM, 24 hours", "method": "(§2) Wound Healing was Performed in 12-Well Plates Coated with 1 μg/Ml FN (Sigma, #1141) overnight at 4° C. OC cells were plated at a density of 2×10^5 cells/well in media containing 2% FBS. Under these conditions cells adhered on substrate, but cell proliferation was minimized. After 16 hours, the cell monolayer was scraped in straight line. Cell debris was removed and serum free media containing selected SMIs or control was replenished. For consistency during image acquisition, a reference point was marked close to the scratch mark and the plate was imaged under phase-contrast microscope at 0, 2, 6, 12 and 24 hours. Wound closure was assessed as the distance between the wound edges, calculated and quantified using the Image Pro-Express software. The percentage of wound closure was evaluated using the formula […]. The rate of migration (μm/h) of OC cells into the wound space was evaluated as the distance difference between wound edges at 0 and 24 h, divided by 24. The experiments were performed in duplicates."}, "OVCAR5 cells": {"test_system": "OVCAR5 cells", "assay": "Wound-healing assay, OVCAR5", "assay_type": "cell-based, human", "conditions": "8 μM, 24 hours", "method": "as §2"}, "SKOV3-GFP cells": {"test_system": "SKOV3-GFP cells", "assay": "In vivo cell attachment to the peritoneum", "design": "species or system mice", "conditions": "for unattached OC cells recovered from the peritoneal cavity: NSG mice, ip, 10 μg/kg, 2 hours after injection"}, "Solubility assay": {"assay": "Solubility assay", "assay_type": "physicochemical", "conditions": "aqueous buffer, kinetic from dmso stock; pH=7.4 PBS buffer, 2% DMSO", "method": "Solubility was measured in a 384-well plate using a Synergy HTX plate reader. Starting with a 50 mM DMSO stock solution of test compounds, dilutions were made from 1 to 500 μM final concentrations using acetonitrile, keeping the final DMSO concentration at 2%. UV absorption was measured at 254 nm and absorbance versus concentration was plotted to give a standard curve. A DMSO stock of test compound was also diluted with pH=7.4 PBS buffer to give a final concentration of 250 μM containing 2% DMSO. This mixture was stirred on a plate shaker for 1 hr after which it was centrifuged at 2500 rpm for 3 min. 50 μL of the supernatant was removed, transferred to a 384-well plate, and the UV absorbance at 254 nm was measured. Absorbance of the test compound in PBS buffer was analyzed with the standard curve to determine solubility."}, "[4]": {"test_system": "SKOV3 cells adhesion onto LP9 monolayers", "assay": "Cell adhesion to LP9 mesothelial monolayers, SKOV3", "assay_type": "cell-based", "conditions": "25 μM", "method": "as §1"}, "[5]": {"test_system": "FAK phosphorylation in SKOV3 cells", "assay": "Western blotting, FAK phosphorylation dose response", "assay_type": "cell-based", "conditions": "increasing doses (TG53 8 to 16 μM), 2 hours after adhesion to FN", "method": "FIG. 33. Dose response effects induced by TG2-FN inhibitors on FAK phosphorylation.\nLysates were separated by SDS-PAGE, transferred onto PVDF membranes (Bio-Rad), incubated with primary and secondary antibodies and developed by using SuperSignal™ West Femto Maximum Sensitivity Substrate and Pierce™ ECL Western Blotting Substrate, respectively (Thermo Scientific). Images were obtained by using the ImageQuant LAS 4000 mini-imager (GE Healthcare, Pittsburgh, Pa.). Densitometry analysis was performed using Quantity One software (Bio-Rad) and results were normalized to GAPDH loading controls. DMSO 0 min time point was considered as 1 for comparative analysis."}}}
{"compound": "Cc1cc(N(C)C)nc(Nc2ccc(NC(=O)c3cccc(Br)c3)cc2)n1", "note": "[MT-6]", "values": [{"measurement": "inhibition of rTG2-FN42 interaction relative to TG53", "setting": "[1]", "result": "slightly more potently than TG53"}, {"measurement": "OC cells' adhesion to FN", "setting": "[2]", "result": "potently blocked"}, {"measurement": "OVCAR433 adhesion to the LP9 layer", "setting": "[3]", "result": "dose-dependent inhibitory effect"}, {"measurement": "motility (scratch repair)", "setting": "SKOV3 cells", "result": "inhibited"}, {"measurement": "motility (scratch repair)", "setting": "OVCAR5 cells", "result": "inhibited"}, {"measurement": "unattached OC cells recovered from the peritoneal cavity", "setting": "SKOV3-GFP cells", "result": "attached less efficiently"}, {"measurement": "unattached OC cells recovered from the peritoneal cavity", "setting": "SKOV3-GFP cells; listed as MT6", "result": "Increased numbers"}, {"measurement": "adhesion of cancer cells to the peritoneum", "setting": "SKOV3-GFP cells; nude mice, i.p., 2 hours", "result": "prevented the adhesion"}, {"measurement": "solubility at 1 h", "setting": "Solubility assay", "result": 6.4, "unit": "µM"}]}
{"compound": "Cc1cc(N(C)C)nc(Nc2ccc(NC(=O)c3ccc(Cl)c(Cl)c3)cc2)n1", "note": "[MT-3]", "values": [{"measurement": "inhibition of rTG2-FN42 interaction relative to TG53", "setting": "[1]", "result": "slightly more potently than TG53"}]}
{"compound": "Cc1cc(N(C)C)nc(Nc2ccc(NC(=O)c3ccc4ccccc4c3)cc2)n1", "note": "[MT-5]", "values": [{"measurement": "inhibition of rTG2-FN42 interaction relative to TG53", "setting": "[1]", "result": "slightly more potently than TG53"}, {"measurement": "OC cells' adhesion to FN", "setting": "[2]", "result": "potently blocked"}, {"measurement": "SKOV3 cell binding to the mesothelial layer", "setting": "[4]", "result": "significantly decreased"}, {"measurement": "OVCAR433 adhesion to the LP9 layer", "setting": "[3]", "result": "dose-dependent inhibitory effect"}, {"measurement": "motility (scratch repair)", "setting": "SKOV3 cells", "result": "inhibited"}, {"measurement": "motility (scratch repair)", "setting": "OVCAR5 cells", "result": "inhibited"}, {"measurement": "FAK phosphorylation", "setting": "[5]", "result": "dose-dependent inhibition"}]}
{"compound": "COc1cccc(C(=O)Nc2ccc(Nc3nc(C)cc(N(C)C)n3)cc2)c1", "note": "[MT-2]", "values": [{"measurement": "OC cells' adhesion to FN", "setting": "[2]", "result": "potently blocked"}]}
